Values after ≈ are worked out from the molar mass of the structure shown. Like-named read-outs stand apart in the source and are kept apart here.
Assays:
[1] = Stability in simulated gastric fluid (SGF); type: in vitro ADME
Experimental: (§1) The stability of exemplary compounds in simulated gastric fluid (SGF) and simulated intestinal fluid (SIF) was tested according to the following protocol.

[2] = in vitro; type: in vitro ADME, human
Experimental: (§2) For several compounds only human liver microsomal stability was tested. […] The microsomal assays were carried out with and without the addition of NADPH at a final concentration of 1 mM. For negative control samples, NADPH reagent was not added. […] Note that compounds undergo only Phase I metabolism in liver microsomes.

[3] = in vitro; settings: for half-life / Observations: stability / GNX production in human plasma / Observations: stability / GNX production in rat plasma: plasma
Experimental: The plasma stability of exemplary compounds was tested using rat, mice, dog, and human plasma, according to the following protocol. For each test compound, samples at a final concentration of 2 μg/mL were prepared in blank plasma of selected species. All samples were incubated at 37° C. on a 150-RPM orbital shaker, and an aliquot was removed at pre-determined time points (0, 15, 30, 60, and 120 minutes). Samples were precipitated with three volumes of acetonitrile containing propranolol as internal standard, and centrifuged for 10 min at 2000 g before LC/MS/MS analysis of the supernatant solutions.

[4] = Stability in simulated intestinal fluid (SIF); type: in vitro ADME
Experimental: as §1

[5] = Dog plasma stability; type: in vitro ADME
[6] = Dog liver microsomal stability; type: in vitro ADME
Experimental: as §2
(§3) CLint=the intrinsic hepatic clearance (uL/min/mg), where CLint is equal to 0.693/(t1/2×Cmp)
Certain compounds were also tested in mice and dog liver microsome assays according to the protocol outlined above. […].

[7] = Rat liver microsomal stability; type: in vitro ADME
Experimental: as §2, §3

[8] = Measured solubility in buffer, LC-MS/MS; type: physicochemical; settings: aqueous buffer, thermodynamic from solid
Experimental: […] The mixture was vortexed and a magnetic stirring bar was subsequently added to the vial. The vial was placed on a magnetic stirrer with constant stirring for 16-24 hours at room temperature. The pH of the top layer solution was measured. Subsequently, 200 μL of the top layer solution was placed in a 1.5 mL microcentrifuge tube and centrifuged at 18,000 g for 10 min at room temperature. A 10 μL aliquot of supernatant was added to 990 μL of methanol:water (1/:1, v/v) and vortexed. Then, one volume of acetonitrile containing internal standard was added to one volume of the above 100-fold diluted solution and the resulting solution was vortexed and placed in 96-well plate for LC-MS/MS analysis. […] LC-MS-MS analysis was performed utilizing multiple reaction monitoring for detection of characteristic ions for each test compound, additional related analytes and internal standard.

[9] = SGF with pepsin pH 1.2, 37° C., 60 min
[10] = simulated gi fluid, SGF with pepsin pH 1.2, 37° C., 2 μg/mL, read-out: SGF t1/2
[11] = human liver microsomes 0.5 mg/mL, with NADPH, compound 0.5 μM, 37° C., read-out: Human Liver Microsomal Stability t1/2
[12] = human liver microsomes 0.5 mg/mL, with NADPH, compound 0.5 μM, read-out: Human Liver Microsomal Stability CLint (uL/min/mg liver) (converted)
[13] = human liver microsomes, no NADPH, compound 0.5 μM
[14] = SIF with pancreatin pH 6.8, 37° C., 60 min
[15] = simulated gi fluid, SIF with pancreatin pH 6.8, 37° C., 2 μg/mL, read-out: SIF t1/2
[16] = rat liver microsomes 0.5 mg/mL, with NADPH, compound 0.5 μM, 37° C., read-out: Rat Liver Microsomal Stability t1/2
[17] = rat liver microsomes 0.5 mg/mL, with NADPH, compound 0.5 μM, read-out: Rat Liver Microsomal Stability CLint (uL/min/mg liver)
[18] = rat liver microsomes, no NADPH, compound 0.5 μM
[19] = simulated gi fluid, 1 h, pH 1.2
[20] = simulated gi fluid, 1 h, pH 6.8

Row | SMILES | SGF (% remain, 60 min) [1, 9] | half-life [2, 11] | microsomal CLint [2, 12] | Human Liver Microsomal Stability no NADPH, % remain 1 h [2, 13] | Human plasma t90 ([3]; human plasma, 2 μg/mL, 37° C.) | half-life ([3]; human) | SIF (% remain, 60 min) [4, 14] | half-life [4, 15] | Comments: production of GNX (ganaxolone) in human liver microsomes ([2]; human liver microsomes) | Observations: stability / GNX production in human plasma ([3]; human) | half-life ([3]; rat) | Comments: production of GNX (ganaxolone) in rat liver microsomes ([7]; rat liver microsomes) | half-life [7, 16] | microsomal CLint [7, 17] | Rat Liver Microsomal Stability no NADPH, % remain 1 h [7, 18] | other results
1 | CC(=O)[C@H]1CC[C@H]2[C@@H]3CC[C@H]4C[C@](C)(OCOC(=O)CN5CCOCC5)CC[C@]4(C)[C@H]3CC[C@]12C [Compound 504] | 0.4% | 2.5 min | 554 µL/min/mg | 0.8% | 2.54 min | 17.1 min | 49.0% | 88.4 min |  |  |  |  |  |  |  | half-life [1, 10]: 7.41 min
2 | CC(=O)[C@H]1CC[C@H]2[C@@H]3CC[C@H]4C[C@](C)(OC(=O)COC(=O)C(C)(C)OC(=O)CN(CCO)CCO)CC[C@]4(C)[C@H]3CC[C@]12C [Compound 228] | 89% | 6.2 min | 225 µL/min/mg | 6% | 1.4 min | 9 min | 1.7% | 32 min | In human GNX produced. | No GNX produced | 12 min | In rat no GNX produced; | 16.4 min | 84.4 µL/min/mg | 15% | half-life [1, 10]: 511 min; Rat plasma t90 ([3]; rat plasma, 2 μg/mL, 37° C.): 1.8 min; Observations: stability / GNX production in rat plasma ([3]; rat): GNX produced in rat; Observations: stability / GNX production in dog plasma ([5]; dog plasma): No GNX produced; Dog plasma t90 ([5]; dog plasma, 2 μg/mL, 37° C.): 3 min; half-life ([5]; dog plasma, 2 μg/mL, 37° C., read-out: Dog plasma Half life (t1/2)): 20 min; microsomal CLint ([6]; dog liver microsomes 0.5 mg/mL, compound 0.5 μM, read-out: Dog Liver Microsomal Stability CLint (uL/min/mg liver)): 129 µL/min/mg; half-life ([6]; dog liver microsomes 0.5 mg/mL, compound 0.5 μM, read-out: Dog Liver Microsomal Stability t1/2): 10.7 min; Dog Liver Microsomal Stability no NADPH, % remain 1 h ([6]; dog liver microsomes, no NADPH): 12.9%
3 | COc1ccccc1N1CCN(CC(=O)O[C@]2(C)CC[C@@]3(C)[C@@H](CC[C@@H]4[C@@H]3CC[C@]3(C)[C@@H](C(C)=O)CC[C@@H]43)C2)CC1 [Compound 100] | 90.8% | 11.9 min | 116 µL/min/mg | 100.0% | 27.8 min | 184 min | 93.2% |  | GNX not produced in human or rat | Stable in human, GNX not | 185 min | GNX not produced in human or rat | 12.7 min | 109 µL/min/mg | 98.0% | Rat plasma t90 ([3]; rat plasma, 2 μg/mL, 37° C.): 27.9 min
4 | COCCOCCOCC(=O)OCO[C@]1(C)CC[C@@]2(C)[C@@H](CC[C@@H]3[C@@H]2CC[C@]2(C)[C@@H](C(C)=O)CC[C@@H]32)C1 [Compound 503] | 68% | 5.65 min | 245 µL/min/mg | 11.6% |  | < 30 min | ~90% | ~30 min |  |  |  |  |  |  |  | half-life [1, 10]: 118 min
5 | CC(=O)[C@H]1CC[C@H]2[C@@H]3CC[C@H]4C[C@](C)(OC(=O)CN5CCN(C)CC5)CC[C@]4(C)[C@H]3CC[C@]12C [Compound 102] | 56.3% |  |  |  |  |  | 74.7% |  |  |  |  |  |  |  |  | 
6 | CCOC(=O)CNCC(=O)O[C@]1(C)CC[C@@]2(C)[C@@H](CC[C@@H]3[C@@H]2CC[C@]2(C)[C@@H](C(C)=O)CC[C@@H]32)C1 [Compound 103] | 98.4% |  |  |  |  |  | 75.9% |  |  |  |  |  |  |  |  | 
7 | CC(=O)OCCN(C)CC(=O)OC(C)(C)C(=O)OCC(=O)O[C@]1(C)CC[C@@]2(C)[C@@H](CC[C@@H]3[C@@H]2CC[C@]2(C)[C@@H](C(C)=O)CC[C@@H]32)C1 [Compound 242] |  |  |  |  |  | 33 min |  |  |  | No GNX produced |  |  |  |  |  | SGF (% remain, 60 min) [1, 19]: 99.1%; half-life ([1]; simulated gi fluid, pH 1.2): 4600 min; half-life ([2]; human, microsomes): 1.41 min; microsomal CLint ([2]; human, microsomes): 982 µL/min/mg; Human Liver Microsomal Stability no NADPH, % remain 1 h ([2]; human, microsomes): 0.26%; Human plasma t90 ([3]; human): 4.99 min; Dog plasma t90 ([5]; dog): 578 min; Observations: stability / GNX production in dog plasma ([5]; dog plasma): No GNX produced; half-life ([5]; dog plasma): 3840 min; SIF (% remain, 60 min) [4, 20]: 29%; half-life ([4]; simulated gi fluid, pH 6.8): 146 min; half-life ([6]; dog, microsomes): 2.07 min; microsomal CLint ([6]; dog, microsomes): 668 µL/min/mg; Dog Liver Microsomal Stability no NADPH, % remain 1 h ([6]; dog, microsomes): 0.89%
8 | CC(=O)[C@H]1CC[C@H]2[C@@H]3CC[C@H]4C[C@](C)(OC(=O)CO)CC[C@]4(C)[C@H]3CC[C@]12C [Compound 201] |  | 17.4 min | 79.5 µL/min/mg | 70% | 313 min | 2080 min | 98.0% | 1580 min | In human, GNX produced | compound very slowly | 543 min |  | 32.4 min | 42.7 µL/min/mg | 99.5% | solubility ([8]; pH 7.4, 50 mM phosphate buffer, 16-24 hours, room temperature, read-out: Solubility pH 7.4): 33 µg/mL (≈ 84.5 µM); solubility ([8]; buffer, pH 2.0, room temperature, read-out: Solubility pH 2.0): 36 µg/mL (≈ 92.2 µM); Rat plasma t90 ([3]; rat plasma, 2 μg/mL, 37° C.): 82 min; Observations: stability / GNX production in rat plasma ([3]; rat): compound very slowly
9 | COCCN(C)CC(=O)O[C@]1(C)CC[C@@]2(C)[C@@H](CC[C@@H]3[C@@H]2CC[C@]2(C)[C@@H](C(C)=O)CC[C@@H]32)C1 [Compound 104] |  | 12 min | 116 µL/min/mg | 98% |  |  |  |  | GNX not produced in human or rat |  |  | GNX not produced in human or rat | 7.41 min | 187 µL/min/mg | 99% | 
10 | COC(=O)[C@@H](C)NCC(=O)O[C@]1(C)CC[C@@]2(C)[C@@H](CC[C@@H]3[C@@H]2CC[C@]2(C)[C@@H](C(C)=O)CC[C@@H]32)C1 [Compound 106] |  |  |  |  |  |  |  |  | GNX not produced in human |  |  |  |  |  |  | SGF (% remain, 60 min) [1, 19]: 2.80%; half-life ([2]; human, microsomes): 4.57 min; microsomal CLint ([2]; human, microsomes): 303 µL/min/mg; Human Liver Microsomal Stability no NADPH, % remain 1 h ([2]; human, microsomes): 3.05%
11 | CC(=O)[C@H]1CC[C@H]2[C@@H]3CC[C@H]4C[C@](C)(OC(=O)CN5CCOCC5)CC[C@]4(C)[C@H]3CC[C@]12C [Compound 101] |  |  |  |  |  | 1620 min |  |  | GNX not produced in human or rat | Stable in human | 2270 min | GNX not produced in human or rat |  |  |  | SGF (% remain, 60 min) [1, 19]: 90.5%; half-life ([2]; human, microsomes): 10.2 min; microsomal CLint ([2]; human, microsomes): 137 µL/min/mg; Human Liver Microsomal Stability no NADPH, % remain 1 h ([2]; human, microsomes): 99.0%; Human plasma t90 ([3]; human): 243.0 min; Rat plasma t90 ([3]; rat): 342.0 min; SIF (% remain, 60 min) [4, 20]: 90.2%; half-life ([7]; rat, microsomes): 6.8 min; microsomal CLint ([7]; rat, microsomes): 204 µL/min/mg; Rat Liver Microsomal Stability no NADPH, % remain 1 h ([7]; rat, microsomes): 100.0%
12 | CC(=O)[C@H]1CC[C@H]2[C@@H]3CC[C@H]4C[C@](C)(OC(=O)CNCC(=O)OC(C)(C)C)CC[C@]4(C)[C@H]3CC[C@]12C [Compound 109] | 96.2% |  |  |  |  |  | 92.9% |  |  |  |  |  |  |  |  | 
